For this assay, the target named is Protein kinase C (PKC) (Homo sapiens) (UniProt O94806+P41743+P17252+P05129+Q05655+P05771+Q05513+Q02156+P24723+Q15139+Q04759). The assay is described as follows: Activation of PKC in human 786-0 cells at 1 uM. It counts as cell-based.

The source made the active and inactive calls. No cut-off for these calls is given here.

Take `CC(C)[C@@]12C[C@@H](OC(=O)CO)[C@@](C)(O1)[C@@H]1CC[C@@H](C)[C@H]1[C@@H]2OC(=O)/C(Cl)=C/c1ccccc1`: the result was Active.

Consider `CC/C(C)=C/C(=O)O[C@@H]1[C@H](C)C[C@H]2O[C@]1(O)[C@@H](O)[C@@]1(C)CC[C@H](O1)C(C)(C)/C=C/[C@H](C)C2=O`, for which the result was Active.

Source of the values: ChEMBL document CHEMBL3804761, “Synthesis of a stable and orally bioavailable englerin analogue” (Bioorg Med Chem Lett, 2016).
